Measured values: patent EP0984975B1, “MULTICYCLIC ERYTHROMYCIN DERIVATIVES” (Abbott Laboratories, priority 1997, dated 1998)

Assays:
Test in all cases: In vitro assay of antibacterial activity (agar dilution MIC)
Format in all cases: cell-based
ESCHERICHIA COLI JUHL = conditions: ESCHERICHIA COLI JUHL; BHI agar, 35-37 °C for 20 to 24 hours; unit assumed
Method: (§1) Representative compounds of the present invention were assayed in vitro for antibacterial activity as follows: Twelve petri dishes containing successive aqueous dilutions of the test compound mixed with 10 mL of sterilized Brain Heart Infusion (BHI) agar (Difco 0418-01-5) were prepared. Each plate was inoculated with 1:100 (or 1:10 for slow-growing strains, such as Micrococcus and Streptococcus) dilutions of up to 32 different microorganisms, using a Steers replicator block. The inoculated plates were incubated at 35-37 °C for 20 to 24 hours. In addition, a control plate, using BHI agar containing no test compound, was prepared and incubated at the beginning and end of each test.
(§2) An additional plate containing a compound having known susceptibility patterns for the organisms being tested and belonging to the same antibiotic class as the test compound was also prepared and incubated as a further control, as well as to provide test-to-test comparability. Erythromycin A was used for this purpose.
(§3) After incubation, each plate was visually inspected. The minimum inhibitory concentration (MIC) was defined as the lowest concentration of drug yielding no growth, a slight haze, or sparsely isolated colonies on the inoculum spot as compared to the growth control.

[1] = system: STREPTOCOCCUS BOVIS A-5169; conditions: STREPTOCOCCUS BOVIS A-5169; BHI agar, 35-37 °C for 20 to 24 hours; unit assumed
Method: as §1, §2, §3

ESCHERICHIA COLI SS = conditions: ESCHERICHIA COLI SS; BHI agar, 35-37 °C for 20 to 24 hours; unit assumed
Method: as §1, §2, §3

ESCHERICHIA COLI DC-2 = conditions: BHI agar, 35-37 °C for 20 to 24 hours, unit assumed
Method: as §1, §2, §3

[2] = system: STAPHYLOCOCCUS AUREUS CMX 642A; conditions: BHI agar, 35-37 °C for 20 to 24 hours, unit assumed
Method: as §1, §2, §3

[3] = system: MYCOBACTERIUM SMEGMATIS ATCC 114; conditions: MYCOBACTERIUM SMEGMATIS ATCC 114; BHI agar, 35-37 °C for 20 to 24 hours; unit assumed
Method: as §1, §2, §3

M[…] ATCC 9341 = conditions: MICROCOCCUS LUTEUS ATCC 9341; BHI agar, 35-37 °C for 20 to 24 hours; unit assumed
Method: as §1, §2, §3

[4] = system: STAPHYLOCOCCUS AUREUS NCTC10649M; conditions: BHI agar, 35-37 °C for 20 to 24 hours, unit assumed
Method: as §1, §2, §3

[5] = system: STAPHYLOCOCCUS EPIDERMIDIS 3519; conditions: STAPHYLOCOCCUS EPIDERMIDIS 3519; BHI agar, 35-37 °C for 20 to 24 hours; unit assumed
Method: as §1, §2, §3

[6] = system: STAPHYLOCOCCUS AUREUS 1775; conditions: BHI agar, 35-37 °C for 20 to 24 hours, unit assumed
Method: as §1, §2, §3

[7] = system: STAPHYLOCOCCUS AUREUS CMX 553; conditions: BHI agar, 35-37 °C for 20 to 24 hours, unit assumed
Method: as §1, §2, §3

M[…] ATCC 4698 = conditions: MICROCOCCUS LUTEUS ATCC 4698; BHI agar, 35-37 °C for 20 to 24 hours; unit assumed
Method: as §1, §2, §3

[8] = system: STAPHYLOCOCCUS AUREUS A5177; conditions: BHI agar, 35-37 °C for 20 to 24 hours, unit assumed
Method: as §1, §2, §3

STR[…] 508 = conditions: STREPTOCOCCUS AGALACTIAE CMX 508; BHI agar, 35-37 °C for 20 to 24 hours; unit assumed
Method: as §1, §2, §3

[9] = system: STAPHYLOCOCCUS AUREUS ATCC 6538P; conditions: BHI agar, 35-37 °C for 20 to 24 hours, unit assumed
Method: as §1, §2, §3

[10] = system: STREPTOCOCCUS PYOGENES PIU 2548; conditions: STREPTOCOCCUS PYOGENES PIU 2548; BHI agar, 35-37 °C for 20 to 24 hours; unit assumed
Method: as §1, §2, §3

CANDIDA ALBICANS CCH 442 = conditions: BHI agar, 35-37 °C for 20 to 24 hours, unit assumed
Method: as §1, §2, §3

[11] = system: STREPTOCOCCUS PYOGENES 930; conditions: STREPTOCOCCUS PYOGENES 930; BHI agar, 35-37 °C for 20 to 24 hours; unit assumed
Method: as §1, §2, §3

N. ASTEROIDES ATCC 9970 = conditions: BHI agar, 35-37 °C for 20 to 24 hours, unit assumed
Method: as §1, §2, §3

EN[…] ATCC 8043 = conditions: ENTEROCOCCUS FAECIUM ATCC 8043; BHI agar, 35-37 °C for 20 to 24 hours; unit assumed
Method: as §1, §2, §3

[12] = system: STAPHYLOCOCCUS AUREUS A-5278; conditions: BHI agar, 35-37 °C for 20 to 24 hours, unit assumed
Method: as §1, §2, §3

[13] = system: STREPTOCOCCUS PYOGENES EES61; conditions: STREPTOCOCCUS PYOGENES EES61; BHI agar, 35-37 °C for 20 to 24 hours; unit assumed
Method: as §1, §2, §3

SMILES | Antibacterial Activity (MIC's) (ESCHERICHIA COLI JUHL) | Antibacterial Activity (MIC's) [1] | Antibacterial Activity (MIC's) (ESCHERICHIA COLI SS) | Antibacterial Activity (MIC's) (ESCHERICHIA COLI DC-2) | Antibacterial Activity (MIC's) [2] | Antibacterial Activity (MIC's) [3] | Antibacterial Activity (MIC's) (M[…] ATCC 9341) | Antibacterial Activity (MIC's) [4] | Antibacterial Activity (MIC's) [5] | Antibacterial Activity (MIC's) [6] | Antibacterial Activity (MIC's) [7] | Antibacterial Activity (MIC's) (M[…] ATCC 4698) | Antibacterial Activity (MIC's) [8] | Antibacterial Activity (MIC's) (STR[…] 508) | Antibacterial Activity (MIC's) [9] | Antibacterial Activity (MIC's) [10] | Antibacterial Activity (MIC's) (CANDIDA ALBICANS CCH 442) | Antibacterial Activity (MIC's) [11] | Antibacterial Activity (MIC's) (N. ASTEROIDES ATCC 9970) | Antibacterial Activity (MIC's) (EN[…] ATCC 8043) | other results
CC[C@H]1OC(=O)[C@H](C)C(=O)[C@H](C)[C@@H](O[C@@H]2O[C@H](C)C[C@H](N(C)C)[C@H]2O)[C@](C)(OC)C[C@@H](C)C2=Nc3ccccc3N3C(=O)O[C@@]1(C)[C@H]3[C@H]2C [Ex 2, Compound of Formula (I): R^1 is methoxy: R^2 is H, R^3 is absent, the double bond is present, A, B, D and E are H, and Y and Z taken together with the atom to which they are attached form an oxo group] | > 100 µg/mL | 0.1 µg/mL | 1.56 µg/mL | > 100 µg/mL | 0.39 µg/mL | 3.1 µg/mL | 0.1 µg/mL | 0.39 µg/mL | 0.39 µg/mL | > 100 µg/mL | 0.39 µg/mL | 0.78 µg/mL | 0.39 µg/mL | 0.1 µg/mL | 0.39 µg/mL | 0.39 µg/mL | > 100 µg/mL | > 100 µg/mL | 0.39 µg/mL | 0.2 µg/mL | Antibacterial Activity (MIC's) [12]: > 100 µg/mL; Antibacterial Activity (MIC's) [13]: 0.1 µg/mL
CC[C@H]1OC(=O)[C@H](C)C(=O)[C@H](C)[C@@H](O[C@@H]2O[C@H](C)C[C@H](N(C)C)[C@H]2O)[C@](C)(OC)C[C@@H](C)C2=Nc3cc(OC)ccc3N3C(=O)O[C@@]1(C)[C@H]3[C@H]2C [Ex 5, Compound of Formula (I): R^1 is methoxy; R^2 is H, R^3 is absent, the double bond is present, A, B, and E are H, D is methoxy, and Y and Z taken together with the atom to which they are attached form an oxo group] | > 100 µg/mL | 0.02 µg/mL | 50 µg/mL | > 100 µg/mL | 0.78 µg/mL | 1.56 µg/mL | 0.1 µg/mL | 0.78 µg/mL | 0.78 µg/mL | > 100 µg/mL | 0.78 µg/mL | 0.78 µg/mL | 0.78 µg/mL | 0.02 µg/mL | 0.78 µg/mL | 0.39 µg/mL | > 100 µg/mL | > 100 µg/mL | 0.2 µg/mL | 0.1 µg/mL | Antibacterial Activity (MIC's) [12]: > 100 µg/mL; Antibacterial Activity (MIC's) [13]: 0.02 µg/mL
